Literature values, collected in publication PMC7838024 (Acta Pharmaceutica Sinica. B, 2020).

Conditions: rats, doses from 0.5 to 1.5 mg/kg

For `CO[C@H]1C(=O)[C@]2(C)[C@@H](OC)C[C@H]3OC[C@@]3(OC(C)=O)[C@H]2[C@H](OC(=O)c2ccccc2)[C@]2(O)C[C@H](OC(=O)[C@H](O)[C@@H](NC(=O)OC(C)(C)C)c3ccccc3)C(C)=C1C2(C)C` [CTX, cabazitaxel], the “central nervous system toxicity” value is given as “dose-dependent central nervous system toxicity”.
